# Laboratory results reported in a melting point compilation (Tetko et al.; mined from patent text by program, amines drawn as free bases though some values may be those of a salt).
row,SMILES,melting point
1,CCCC(=O)c1cnc2c(OCCCN(C)Cc3ccccc3)cccc2c1Nc1ccccc1C,100 to 102 °C
2,CCOc1nc(NCc2ccncc2)nc(Nc2ccc3[nH]c(=O)[nH]c3c2)n1,210 to 212 °C
3,O=C(O)C(=NOCc1ccc(F)cc1)c1csc(NC(=O)C(F)(F)F)n1,180 to 182 °C
4,O=c1c2cc(Cl)ccc2nc2n1CCCC2=Cc1ccccc1,121 to 123 °C
5,Oc1ccc2c(c1)CCCC(c1ccccc1)=C2c1ccc(OCCCCCCl)cc1,200 to 202 °C
6,CC(=O)NCc1ccc(C(=O)CBr)s1,129 to 131 °C
7,CSc1cc(SC)c(N)c(SC)c1N,114 to 116 °C
8,O=C(NC(=O)c1c(Cl)cccc1Cl)Nc1ccc(F)c(C(F)(F)F)c1Cl,227 to 230 °C
9,CN1C(C)(C)CC(O[Si](c2ccccc2)(c2ccccc2)c2ccccc2)CC1(C)C,109 to 110 °C
10,OC12CC3CC(C1)CC(NC(c1ccccc1)(c1ccccc1)c1ccccc1)(C3)C2,184 to 186 °C
11,CC(O)=CC(N)=NC(C)(C)C,119 to 125 °C
12,Cn1c(CO)nc2cccnc21,229 to 231 °C
13,O=C(CCc1cccc(Br)c1)c1cnc2sc3c(n12)CCCCC3,77 to 79 °C
14,CC(=O)NCCC1CCc2ccn3nccc3c21 (stereo not drawn),100 to 101 °C
15,CC(=O)OC1CCC2(C)C(CCC3=C4C(=O)CC(C(C)CCC=O)C4(C)CCC32)C1 (stereo not drawn),162 to 164 °C
16,CCCCCCCCCCOc1cc(C(=O)O)c(OCCCCCCCCCC)cc1C(=O)O,136 to 137 °C
17,C(=NNc1ccccc1)c1ccccn1,179 °C
18,CN(c1ccccc1)c1nc(Cl)nc(N2CCOCC2)n1,93.5 to 95.5 °C
19,O=C1Nc2ccccc2C1(c1ccc(O)cc1)c1ccc(O)cc1,267 °C
20,COc1ccc2[nH]c(SCc3nccc(N4CCCCC4)c3Cl)nc2c1,145 to 147 °C
21,CCCCCCCCCCCCCCCCCCOc1ccc(OCc2ccccc2)c(C(=O)N(CC(=O)O)CC(=O)O)c1,81 to 83 °C
22,O=C(NCc1c(Cl)cccc1Oc1ccccc1)C1CCc2[nH]cnc2C1 (stereo not drawn),197 to 199 °C
23,c1cncc(-c2cc(C3CCN(CCc4cccc5ccccc45)CC3)n[nH]2)c1,171 to 173 °C
24,O=c1[nH]c2ccc(S(=O)CCN3CCC(Cc4ccccc4F)CC3)cc2o1 (stereo not drawn),179 to 181 °C

row,SMILES,melting point
1,O=C(c1cccc(Cl)c1)N1CCCN(CC2=Nc3cccc4c(=O)[nH]nc(c34)N2)CC1,147 to 149 °C
2,CCCC(OC(=O)c1ccncc1)C(=O)O (racemic),152 to 153 °C
3,Cc1cc(CCCCCCCc2ccc(C#N)cc2)on1,61 °C
4,O[C@H](COc1cccc2[nH]ccc12)CN1CCC(c2c[nH]c3c(Cl)cccc23)CC1,186 to 189 °C
5,O=C(O)COc1cc(Br)c2oc3cccc(F)c3c(=O)c2c1,220 to 223 °C
6,O=C(Nc1cccnc1)NC(NC(=O)c1ccccc1)C(Cl)(Cl)Cl (stereo not drawn),214 to 215 °C
7,CC1(O)ON=C(c2ccc(Br)cc2)C1c1ccccc1 (stereo not drawn),153 °C
8,CCOC(=O)c1c(CCBr)nc2cc(OC)c(OC)cc2c1-c1ccc(OC)c(OC)c1,132 to 133 °C
9,N#CCN1CCC(Nc2nc3ccccc3n2Cc2ccnc3ccccc23)CC1,190 °C
10,CC1CC(=O)NN=C1c1ccc2c(c1)NC(=O)C(C)O2 (stereo not drawn),271 to 272 °C
11,COc1cc(COc2nn(C)cc2C=O)ccc1OCc1nc(-c2ccccc2)oc1C,123 to 124 °C
12,COC1=CC(=O)c2c(c(COc3cc(C=Cc4cc(OC)c(OC)c(OC)c4)ccc3OC)c(C)n2C)C1=O,192 to 194 °C
13,C1=C(/C=C/c2ccsc2)CCN(Cc2nc3ccccc3[nH]2)C1,216 to 218 °C
14,[N-]=[N+]=NCn1cc(Cl)c(-c2cc(Cl)cc(Cl)c2)n1,74 °C
15,COCc1nc(N)nc(N)c1-c1cc(Cl)cc(Cl)c1,228 to 230 °C
16,Cc1cnc2nc(SCc3ccccc3)nn2c1,254 to 256 °C
17,Oc1cccc2c1ccn2CCCCCc1ccccc1,109 to 110 °C
18,CCCCCC(O)CCCC(CCCCCCC(=O)O)S(C)(=O)=O (stereo not drawn),47 to 48 °C
19,Cc1cc(C#N)cc(C(=O)c2c(C(C)C)c(=O)[nH]c(=O)n2C(C)C)c1,278 to 280 °C
20,OC(CCc1cccnc1)COc1ccc(-c2ccccc2)cc1 (stereo not drawn),83 to 86 °C
21,Nc1nc2c(c(=O)[nH]1)CCc1ccccc1-2,> 300 °C
22,C=CCN(c1ncnc2c1ncn2C1OC(CO)C(O)C1O)C1CCCCC1 (stereo not drawn),123 to 125 °C
23,COc1ccc(CN(C)CC(O)COc2ccc(NC(=O)c3cccc4c(=O)c5cccc(OC)c5[nH]c34)cc2)cc1OC (stereo not drawn),175 °C
24,Cc1c(OCCCO)ccnc1CO,65 to 70 °C

# Results, then the molecule that gave them:
row,melting point,SMILES
1,89 to 94 °C,C[C@@H]1Cc2ccsc2[C@H](C)N1CCNC(=O)c1ccccc1N (relative stereo)
2,110 to 118 °C,CC(C)(C)ONC(=O)c1ccc(Cc2ccc(N)cc2)cc1
3,94 °C,O=C(O)CCc1ccccc1CNC(=O)C1Cc2ccccc2N1S(=O)(=O)c1ccc(-c2cccc(C(F)(F)F)c2)cc1 (stereo not drawn)
4,186 to 188 °C,O=C1CCC(N2Cc3c(OCc4ccc(CN5CCCCC5)cc4)cccc3C2=O)C(=O)N1 (stereo not drawn)
5,144 °C,O=C(O)Cc1ccc(C(=O)c2ccccc2)s1
6,116 to 119 °C,CCN1Cc2ccccc2C(=O)c2cc(CC(=O)OC)ccc21
7,193 to 195 °C,CCOC(=O)N1CCN(c2ccc(C3=NNC(=O)CC3C)cc2N)CC1 (stereo not drawn)
8,210 to 213 °C,CC(C)(C)NS(=O)(=O)c1cc(C(=O)O)ccc1C(=O)O
9,108 °C,O=C(NC(=O)C(c1ccccc1)c1ccccc1)OCC1CC1
10,150 to 152 °C,CS(=O)(=O)c1ccc(-c2cnn(CC=C(Cl)Cl)c(=O)c2-c2ccc(F)cc2)cc1
11,178 to 182 °C,CC(=O)N1CCCc2c1n(-c1ccccc1)c1c(c2=O)CCc2ccccc2-1
12,68 to 70 °C,COc1ccc(COc2ccccc2-c2cccc(N)c2)cc1
13,181 °C,Cc1cccc(NC(=O)NC(C(=O)N(c2ccccc2)c2ccccc2)c2ccccc2)c1 (racemic)
14,91 °C,COC(=O)c1cc(OC)c2c(c1)OCO2
15,153 to 154 °C,COc1ccc(C2N(C(C)=O)c3ccccc3-c3c([N+](=O)[O-])cnn32)cc1 (stereo not drawn)
16,85 to 86 °C,CCOC(=O)c1c(C)cc2cnc(-c3ccccc3)nc2c1C
17,222 to 223 °C,O=C1CCC(c2ccc(-n3cccc3)cc2)=NN1
18,90 to 92 °C,CCC(OCCc1ccc(-c2ccc(Cl)cc2)cc1)C(=O)O (stereo not drawn)

row,melting point,SMILES
1,127 to 130 °C,CS(=O)(=O)c1cc(C(=O)NCCN2CCOCC2)c(NCc2ccco2)cc1Cl
2,177 to 179 °C,CCOC(=O)c1ccc(-c2ccc(-c3ccc(O)cc3)c(-c3ccc4c(c3)C(C)(C)CCC4(C)C)c2)cc1
3,208 to 210 °C,CCn1c(=O)n(-c2ccc(Oc3nc4ccccc4n3C)cc2)c2ncc(Cl)cc21
4,252 to 253 °C,Nc1cc(C(=O)O)cc(S(N)(=O)=O)c1Oc1ccccc1
5,208 to 215 °C,Cc1ccc(C(O)(c2ccc(C)cc2)C2CCN(CCCC(O)c3ccc(C(C)(C)C(=O)O)cc3)CC2)cc1 (stereo not drawn)
6,164 to 166 °C,COC(=O)c1ccc2c(c1)CN(S(=O)(=O)c1ccc(C)cc1)C2
7,167 to 168 °C,COc1ccc(CC(=O)O)cc1C(=O)NCc1ccc(C(F)(F)F)cc1
8,119 to 123 °C,Cc1cccc(-c2[nH]c(C(C)C)nc2-c2ccc(F)c(-c3ccc4c(c3)CCS4(=O)=O)c2)n1
9,94 to 96 °C,Cc1ccc(-c2ccc3c(c2)C=C(CN2CCC(NC(=O)C(F)(F)F)CC2)CCO3)cc1
10,79 to 82 °C,CCC(=C(c1ccccc1)c1ccc(OCC2CO2)cc1)C1CCCC1 (stereo not drawn)
11,289 to 291 °C,CS(=O)(=O)c1ccc(-c2c(-c3ccc(F)cc3)nn3c(-c4ccc(F)cc4)coc23)cc1
12,50 to 52 °C,CC(C)COP(C)(=O)c1ccccc1S(N)(=O)=O (stereo not drawn)
13,112 to 117 °C,Nc1sc2c(c1C(=O)c1ccco1)CCN(Cc1ccccc1)C2
14,142 to 144 °C,Cc1ccc(S(=O)(=O)N(C)SN(c2cc(C(F)(F)F)ccc2Cl)c2c([N+](=O)[O-])cc([N+](=O)[O-])cc2C(F)(F)F)cc1
15,163 °C,CCOC(=O)c1cc2ccc(Oc3ccc([N+](=O)[O-])cc3)cc2oc1=O
16,> 300 °C,O=C1C2=C(Nc3ccccc3C2)c2ccccc21
17,118 °C,COC(=O)c1ccc(Br)cc1OC(=S)N(C)C
